Test results: ChEMBL document CHEMBL5291721, “A preclinical secondary pharmacology resource illuminates target-adverse drug reaction associations of marketed drugs” (Nat Commun, 2023)

What was measured:
[1] = molecular target: T1, Alpha-1A adrenergic receptor (Homo sapiens, UniProt P35348)
T1 sequence (P35348 whole entry): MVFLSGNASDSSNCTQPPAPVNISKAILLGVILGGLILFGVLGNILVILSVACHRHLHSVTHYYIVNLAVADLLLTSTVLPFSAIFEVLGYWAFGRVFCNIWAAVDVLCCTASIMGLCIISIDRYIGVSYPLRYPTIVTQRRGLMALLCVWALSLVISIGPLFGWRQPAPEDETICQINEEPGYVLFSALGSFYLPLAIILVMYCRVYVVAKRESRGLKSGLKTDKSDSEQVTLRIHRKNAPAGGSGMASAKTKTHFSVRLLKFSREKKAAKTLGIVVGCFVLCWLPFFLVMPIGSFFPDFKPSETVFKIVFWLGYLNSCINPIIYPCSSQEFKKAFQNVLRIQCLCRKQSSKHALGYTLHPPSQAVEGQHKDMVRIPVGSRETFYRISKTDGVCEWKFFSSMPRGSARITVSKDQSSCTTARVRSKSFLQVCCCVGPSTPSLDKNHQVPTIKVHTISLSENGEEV

[2] = molecular target: T2, Alpha-2A adrenergic receptor (Homo sapiens, UniProt P08913); type: functional, cell-based
T2 sequence (P08913 whole entry): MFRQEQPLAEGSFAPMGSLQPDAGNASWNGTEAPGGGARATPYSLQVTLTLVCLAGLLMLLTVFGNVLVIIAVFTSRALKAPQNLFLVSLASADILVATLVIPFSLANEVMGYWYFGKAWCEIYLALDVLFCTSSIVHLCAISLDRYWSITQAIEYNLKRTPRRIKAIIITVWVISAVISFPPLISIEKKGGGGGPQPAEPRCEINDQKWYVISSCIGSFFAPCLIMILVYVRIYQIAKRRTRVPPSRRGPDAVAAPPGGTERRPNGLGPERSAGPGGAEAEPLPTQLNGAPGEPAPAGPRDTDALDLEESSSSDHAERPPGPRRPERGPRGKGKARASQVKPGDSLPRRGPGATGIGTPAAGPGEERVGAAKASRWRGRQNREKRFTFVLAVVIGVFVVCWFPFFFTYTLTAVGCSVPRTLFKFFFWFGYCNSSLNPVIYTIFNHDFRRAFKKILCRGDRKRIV

[3] = molecular target: T3, Alpha-2B adrenergic receptor (Homo sapiens, UniProt P18089)
T3 sequence (P18089 whole entry): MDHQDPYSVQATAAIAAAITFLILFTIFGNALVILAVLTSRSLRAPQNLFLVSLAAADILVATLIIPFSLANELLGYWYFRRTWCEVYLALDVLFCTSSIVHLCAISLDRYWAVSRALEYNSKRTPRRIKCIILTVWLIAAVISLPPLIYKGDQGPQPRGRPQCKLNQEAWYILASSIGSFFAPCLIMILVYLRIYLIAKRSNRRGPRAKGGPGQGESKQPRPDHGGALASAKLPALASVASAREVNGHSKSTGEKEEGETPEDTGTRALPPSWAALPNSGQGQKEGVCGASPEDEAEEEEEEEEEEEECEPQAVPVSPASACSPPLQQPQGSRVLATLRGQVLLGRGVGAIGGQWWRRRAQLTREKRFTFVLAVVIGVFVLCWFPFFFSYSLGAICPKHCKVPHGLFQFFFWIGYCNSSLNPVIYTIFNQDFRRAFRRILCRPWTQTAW

[4] = molecular target: T4, Cholecystokinin receptor type A (Homo sapiens, UniProt P32238)
T4 sequence (P32238 whole entry): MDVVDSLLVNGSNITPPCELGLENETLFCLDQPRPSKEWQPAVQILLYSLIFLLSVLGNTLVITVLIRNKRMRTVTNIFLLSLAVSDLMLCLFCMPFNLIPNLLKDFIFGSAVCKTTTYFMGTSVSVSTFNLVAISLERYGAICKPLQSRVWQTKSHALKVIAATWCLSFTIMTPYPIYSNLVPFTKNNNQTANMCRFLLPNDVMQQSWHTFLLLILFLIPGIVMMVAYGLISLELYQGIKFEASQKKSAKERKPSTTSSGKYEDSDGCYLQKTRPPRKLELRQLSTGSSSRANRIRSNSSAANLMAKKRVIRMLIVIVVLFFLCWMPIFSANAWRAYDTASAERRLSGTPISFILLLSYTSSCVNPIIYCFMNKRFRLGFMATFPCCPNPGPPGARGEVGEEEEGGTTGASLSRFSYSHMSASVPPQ

[5] = molecular target: T5, Muscarinic acetylcholine receptor M2 (Homo sapiens, UniProt P08172); type: functional, cell-based
T5 sequence (P08172 whole entry): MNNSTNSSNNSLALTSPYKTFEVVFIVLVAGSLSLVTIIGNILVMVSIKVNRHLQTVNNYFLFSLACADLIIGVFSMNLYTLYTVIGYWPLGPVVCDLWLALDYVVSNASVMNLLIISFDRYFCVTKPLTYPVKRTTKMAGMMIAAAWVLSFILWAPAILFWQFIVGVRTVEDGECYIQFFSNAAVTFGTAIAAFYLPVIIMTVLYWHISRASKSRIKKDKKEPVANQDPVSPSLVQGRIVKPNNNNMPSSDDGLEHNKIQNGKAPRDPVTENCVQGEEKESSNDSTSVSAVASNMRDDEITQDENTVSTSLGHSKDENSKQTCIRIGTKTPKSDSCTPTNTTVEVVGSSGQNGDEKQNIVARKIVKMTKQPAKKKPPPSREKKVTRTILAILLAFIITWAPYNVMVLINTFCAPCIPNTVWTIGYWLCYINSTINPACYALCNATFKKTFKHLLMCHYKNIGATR

[6] = molecular target: Neuronal acetylcholine receptor subunit alpha-4 (Homo sapiens, UniProt P43681)
[7] = molecular target: Gamma-aminobutyric acid receptor subunit alpha-1 (Rattus norvegicus, UniProt P62813); type: functional
[8] = molecular target: Glutamate receptor ionotropic, NMDA 1 (Rattus norvegicus, UniProt P35439)
[9] = molecular target: Sodium-dependent serotonin transporter (Homo sapiens, UniProt P31645)
Note: assay procedure not described here.

Neuronal acetylcholine receptor subunit alpha-4, sequence (P43681 whole entry): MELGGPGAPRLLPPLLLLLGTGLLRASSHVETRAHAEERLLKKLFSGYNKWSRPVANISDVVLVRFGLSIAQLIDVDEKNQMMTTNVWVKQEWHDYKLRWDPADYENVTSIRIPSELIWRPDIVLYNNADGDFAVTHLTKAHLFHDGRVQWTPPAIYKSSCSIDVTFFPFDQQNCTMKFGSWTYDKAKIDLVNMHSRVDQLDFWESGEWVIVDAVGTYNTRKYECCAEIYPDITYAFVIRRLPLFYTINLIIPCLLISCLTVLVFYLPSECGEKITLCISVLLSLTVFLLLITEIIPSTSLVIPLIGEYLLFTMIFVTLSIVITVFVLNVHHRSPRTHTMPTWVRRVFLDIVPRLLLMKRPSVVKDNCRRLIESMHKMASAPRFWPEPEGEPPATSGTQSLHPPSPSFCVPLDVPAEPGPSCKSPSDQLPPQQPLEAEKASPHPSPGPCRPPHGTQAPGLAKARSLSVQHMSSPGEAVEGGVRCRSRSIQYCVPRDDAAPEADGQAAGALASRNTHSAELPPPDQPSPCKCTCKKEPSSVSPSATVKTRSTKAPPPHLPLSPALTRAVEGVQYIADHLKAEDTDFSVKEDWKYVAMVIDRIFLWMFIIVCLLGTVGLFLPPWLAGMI
Sodium-dependent serotonin transporter, sequence (P31645 whole entry): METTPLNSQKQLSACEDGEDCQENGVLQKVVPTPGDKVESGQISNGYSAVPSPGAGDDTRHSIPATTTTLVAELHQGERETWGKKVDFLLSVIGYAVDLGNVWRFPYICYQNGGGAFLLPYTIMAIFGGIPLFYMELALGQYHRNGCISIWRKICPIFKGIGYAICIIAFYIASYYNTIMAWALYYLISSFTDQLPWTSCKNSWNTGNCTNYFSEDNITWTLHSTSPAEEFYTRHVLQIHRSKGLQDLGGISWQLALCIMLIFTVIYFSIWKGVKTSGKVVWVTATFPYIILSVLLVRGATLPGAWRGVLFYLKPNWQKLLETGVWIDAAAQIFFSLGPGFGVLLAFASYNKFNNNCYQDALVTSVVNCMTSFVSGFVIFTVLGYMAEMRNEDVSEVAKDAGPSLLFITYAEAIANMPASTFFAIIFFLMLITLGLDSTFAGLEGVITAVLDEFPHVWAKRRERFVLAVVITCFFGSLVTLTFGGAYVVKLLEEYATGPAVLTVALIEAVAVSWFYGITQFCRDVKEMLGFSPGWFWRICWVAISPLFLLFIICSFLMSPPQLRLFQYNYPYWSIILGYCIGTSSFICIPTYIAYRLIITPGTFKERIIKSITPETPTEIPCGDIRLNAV
Gamma-aminobutyric acid receptor subunit alpha-1, sequence (P62813 whole entry): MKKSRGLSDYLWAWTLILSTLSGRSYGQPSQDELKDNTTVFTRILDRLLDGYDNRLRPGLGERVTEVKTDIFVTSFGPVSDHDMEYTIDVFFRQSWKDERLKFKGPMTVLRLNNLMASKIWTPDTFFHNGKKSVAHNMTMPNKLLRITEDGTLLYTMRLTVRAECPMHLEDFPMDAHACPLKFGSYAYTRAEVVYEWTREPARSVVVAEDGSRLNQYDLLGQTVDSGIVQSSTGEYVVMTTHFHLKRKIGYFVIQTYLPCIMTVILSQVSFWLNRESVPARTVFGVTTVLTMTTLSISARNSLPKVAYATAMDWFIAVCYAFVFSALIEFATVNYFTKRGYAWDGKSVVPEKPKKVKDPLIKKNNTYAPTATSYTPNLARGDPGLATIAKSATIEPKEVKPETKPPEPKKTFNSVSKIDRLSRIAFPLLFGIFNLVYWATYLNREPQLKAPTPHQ

Compound	AC50 [1] [µM]	AC50 [2] [µM]	AC50 [3] [µM]	AC50 [4] [µM]	AC50 [5] [µM]	AC50 [6] [µM]	AC50 [7] [µM]	AC50 [8] [µM]	AC50 [9] [µM]
COc1ccc(C(Cl)=C(c2ccc(OC)cc2)c2ccc(OC)cc2)cc1 [CHLOROTRIANISENE]	> 10	> 30	> 30	> 30	> 30	> 30	> 30	> 30	> 30
CCC(=O)[C@@]1(C)[C@H](C)C[C@H]2[C@@H]3CCC4=CC(=O)C=C[C@]4(C)[C@H]3[C@@H](O)C[C@@]21C [RIMEXOLONE]	> 10	> 10	> 10	> 10	> 10	> 10	> 10	> 10	> 10
CC(C(=O)O)c1ccc(C(=O)c2ccccc2)s1 (stereo not drawn) [TIAPROFENIC ACID]	10	> 10	> 10	> 10	> 10	> 10	> 30	> 10	> 10
COc1ccc2c3c1O[C@H]1C(=O)CC[C@H]4[C@@H](C2)N(C)CC[C@]314 [HYDROCODONE]	> 10	> 10	> 10	> 30	> 10	> 10	> 10	> 10	> 10
C[C@@H](Cc1ccccc1)N(C)Cc1ccccc1 [BENZPHETAMINE]	6.96	> 10	2.8	> 10	> 10	> 10	> 10	> 10	0.075
OCC(CO)N[C@H]1C[C@](O)(CO)[C@@H](O)[C@H](O)[C@H]1O [VOGLIBOSE]	> 30	> 30	> 30	> 30	> 30	> 30	> 30	> 30	> 30
CCC(NC(C)C)C(O)c1ccc(O)c(O)c1 (stereo not drawn) [ISOETHARINE]	> 30	> 30	> 30	> 30	> 30	> 30	> 30	> 30	> 30
